biological target: T1, human recombinant mGluR5 (Homo sapiens, UniProt P41594); experiment: positive modulation of mGluR5, calcium based FLIPR assay; details: HEK 293 cell line expressing human recombinant mGluR5; Ca2+ peak height after glutamate at approximately 5% basal stimulation; nonlinear regression
T1 construct: expressed in transfected cells; hygromycin and geneticin selection
Method in brief: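 HEK293 cells with tetracycline-free induction, Calcium-4 dye-loaded in Ringer pH 7.4. Compound added 5 min before glutamate at ~5% of maximal effect, 1% DMSO. EC50 from peak Ca2+ fluorescence, normalized to basal glutamate (100%) and 10 μM CDPPB (200%), via nonlinear regression.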

T1 sequence (P41594 21-1212): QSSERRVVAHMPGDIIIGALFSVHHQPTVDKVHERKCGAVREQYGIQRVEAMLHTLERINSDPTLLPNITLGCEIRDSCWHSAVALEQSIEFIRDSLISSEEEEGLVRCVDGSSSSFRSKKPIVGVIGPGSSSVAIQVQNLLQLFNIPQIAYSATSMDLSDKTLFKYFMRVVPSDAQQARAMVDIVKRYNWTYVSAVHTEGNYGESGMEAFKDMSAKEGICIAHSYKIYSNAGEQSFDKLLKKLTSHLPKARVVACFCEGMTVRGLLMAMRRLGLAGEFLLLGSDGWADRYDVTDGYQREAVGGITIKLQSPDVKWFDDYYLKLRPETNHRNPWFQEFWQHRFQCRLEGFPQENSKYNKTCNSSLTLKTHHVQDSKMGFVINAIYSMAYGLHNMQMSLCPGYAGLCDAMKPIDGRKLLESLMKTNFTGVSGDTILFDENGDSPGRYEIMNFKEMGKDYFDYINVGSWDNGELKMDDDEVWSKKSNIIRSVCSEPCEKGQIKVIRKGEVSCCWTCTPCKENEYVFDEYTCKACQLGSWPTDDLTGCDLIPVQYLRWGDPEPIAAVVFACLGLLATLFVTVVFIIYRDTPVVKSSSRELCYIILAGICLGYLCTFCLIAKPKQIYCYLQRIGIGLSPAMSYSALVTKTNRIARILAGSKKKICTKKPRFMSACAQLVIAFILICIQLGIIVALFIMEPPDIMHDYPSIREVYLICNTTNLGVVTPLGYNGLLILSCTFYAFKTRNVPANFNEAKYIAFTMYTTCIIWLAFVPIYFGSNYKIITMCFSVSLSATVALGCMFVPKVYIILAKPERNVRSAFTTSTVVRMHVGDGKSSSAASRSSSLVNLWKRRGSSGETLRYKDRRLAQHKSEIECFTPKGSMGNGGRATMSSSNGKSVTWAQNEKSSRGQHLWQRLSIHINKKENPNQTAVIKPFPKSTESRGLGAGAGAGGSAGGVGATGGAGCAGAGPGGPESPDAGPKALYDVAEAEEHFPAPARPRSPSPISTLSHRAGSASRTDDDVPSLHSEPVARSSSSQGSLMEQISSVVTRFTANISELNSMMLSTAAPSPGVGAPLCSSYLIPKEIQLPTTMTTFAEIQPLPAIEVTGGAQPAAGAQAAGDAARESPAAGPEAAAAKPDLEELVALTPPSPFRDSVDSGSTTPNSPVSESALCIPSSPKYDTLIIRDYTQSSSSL

SMILES | EC50 [nM]
COc1ccc2c(C)c(C(=O)N3CCN(C(=O)c4ncn(-c5cccc(Cl)c5)n4)C(C)(C)C3)oc2c1 [Example 47] | 184
CC1(C)CN(C(=O)c2cccc(Cl)c2)CCN1C(=O)c1nnn(-c2cccc(Cl)c2)n1 [Example 191] | 64
CCOc1cccc(C(=O)N2CCN(C(=O)c3ncn(-c4cccc(Cl)c4)n3)C(C)(C)C2)n1 [Example 62] | 869
COc1nc(C(=O)N2CCN(C(=O)c3ncn(-c4cccc(Cl)c4)n3)C(C)(C)C2)cc2ccccc12 [Example 42] | 88
Cc1oc2ccc(Br)cc2c1C(=O)N1CCN(C(=O)c2ncn(-c3cccc(F)c3)n2)C(C)(C)C1 [Example 1, [4-(5-Bromo-2-methyl-benzofuran-3-carbonyl)-2,2-dimethyl-piperazin-1-yl]-[1-(3-fluoro-phenyl)-1H-[1,2,4]triazol-3yl]-methanone] | 39
CC1CN(C(=O)c2cc(Br)c(Br)o2)CCN1C(=O)c1ncn(-c2cccc(Cl)c2)n1 (centres unmarked) [Example 266] | 538
CC1(C)CN(C(=O)c2cccc3c2OCO3)CCN1C(=O)c1ncn(-c2cccc(Cl)c2)n1 [Example 48] | 127
C[C@@H]1CN(C(=O)c2ncn(-c3cccc(Cl)c3)n2)CCN1C(=O)c1cc(Br)c(Br)o1 [Example 249] | 198
CC1(C)CN(C(=O)c2cccc(C(F)F)c2)CCN1C(=O)c1ncn(-c2ccccc2)n1 [Example 135] | 47
COc1cccc(C(=O)N2CCN(C(=O)c3nnn(-c4cccc(F)c4)n3)C(C)(C)C2)n1 [Example 202] | 65
COc1cc(Cl)cc(C(=O)N2CCN(C(=O)c3nnn(-c4cccc(Cl)c4)n3)C(C)(C)C2)n1 [Example 172] | 26
Cc1cccc(-n2cnc(C(=O)N3CCN(C(=O)c4c(C)oc5ccccc45)C(C)C3)n2)c1 (centres unmarked) [Example 238] | 317
Cc1c(C(=O)N2CCN(C(=O)c3ncn(-c4ccccc4)n3)C(C)C2)oc2ccc(F)cc12 (centres unmarked) [Example 294] | 1080
Cc1c(C(=O)N2CCN(C(=O)c3ncn(-c4cccc(Cl)c4)n3)C(C)C2)oc2c(F)cccc12 (centres unmarked) [Example 284] | 858
CC1(C)CN(C(=O)c2cccc(C#N)n2)CCN1C(=O)c1ncn(-c2cccc(Cl)c2)n1 [Example 33] | 203
CCCc1nc2cc(C(=O)N3CCN(C(=O)c4ncn(-c5ccccc5)n4)C(C)(C)C3)cc(C)c2[nH]1 [Example 146] | 2170
Cc1c(C(=O)N2CCN(C(=O)c3ncn(-c4cccc(Cl)c4)n3)C[C@@H]2C)oc2ccc(F)cc12 [Example 253] | 336
CC1(C)CN(C(=O)c2cccc(Cl)c2)CCN1C(=O)c1nnn(-c2ccc(F)cc2)n1 [Example 193] | 173
Cc1c(C(=O)N2CCN(C(=O)c3ncn(-c4ccccc4)n3)CC2C)oc2ccc(F)cc12 (centres unmarked) [Example 241] | 987
COc1cc(Cl)cc(C(=O)N2CCN(C(=O)c3nnn(-c4cccc(F)c4)n3)C(C)(C)C2)n1 [Example 169, [4-(4-Chloro-6-methoxy-pyridine-2-carbonyl)-2,2-dimethyl-piperazin-1-yl]-[2-(3-fluoro-phenyl)-2H-tetrazol-5-yl]-methanone] | 27
COc1cccc(C(=O)N2CCN(C(=O)c3nnn(-c4cccc(C)c4)n3)CC2C)n1 (centres unmarked) [Example 243, (6-Methoxy-pyridin-2-yl)-[2-methyl-4-(2-m-tolyl-2H-tetrazole-5-carbonyl)-piperazin-1-yl]-methanone] | 365

SMILES | EC50 [nM]
Cc1cc(-n2cnc(C(=O)N3CCN(C(=O)c4cc(Cl)c5c(c4)OCCO5)CC3(C)C)n2)ccc1F [Example 162] | 475
CC1(C)CN(C(=O)c2cccc(Cl)c2)CCN1C(=O)c1nnn(-c2cccc(F)c2)n1 [Example 192] | 159
Cc1cc(C(=O)N2CCN(C(=O)c3ncn(-c4cccc(Cl)c4)n3)C(C)(C)C2)ccc1Cl [Example 65] | 144
COc1cc(C(=O)N2CCN(C(=O)c3ncn(-c4cccc(F)c4)n3)CC2C)ccc1C (centres unmarked) [Example 233] | 476
CCc1ccc(C(=O)N2CCN(C(=O)c3ncn(-c4cccc(Cl)c4)n3)C(C)(C)C2)o1 [Example 60] | 69
CC1(C)CN(C(=O)c2cccc(C3CCOCC3)n2)CCN1C(=O)c1ncn(-c2cccc(Cl)c2)n1 [Example 176, [1-(3-Chloro-phenyl)-1H-[1,2,4]-triazol-3-yl]-{2,2-dimethyl-4-[6-(tetrahydro-pyran-4-yl)-pyridine-2-carbonyl]-piperazin-1-yl}-methanone] | 366
CC1(C)CN(C(=O)c2ccc(Cl)c(Cl)c2)CCN1C(=O)c1ncn(-c2cccc(Cl)c2)n1 [Example 27] | 80
CC1(C)CN(C(=O)c2cccc(C(F)(F)F)c2)CCN1C(=O)c1ncn(-c2ccccc2)n1 [Example 98] | 32
Cc1cccc(-n2cnc(C(=O)N3CCN(C(=O)c4cc(Br)c(Br)o4)CC3(C)C)n2)c1 [Example 8] | 53
CC1(C)CN(C(=O)c2cccc(N3CCCC3)n2)CCN1C(=O)c1ncn(-c2cccc(Cl)c2)n1 [Example 51] | 102
CC1(C)CN(C(=O)c2cc(Cl)cc(Br)c2)CCN1C(=O)c1ncn(-c2ccccc2)n1 [Example 125] | 83
CC1CN(C(=O)c2cc3ccccc3o2)CCN1C(=O)c1ncn(-c2cccc(Cl)c2)n1 (centres unmarked) [Example 267] | 558
CCCOc1cccc(C(=O)N2CCN(C(=O)c3ncn(-c4cccc(Cl)c4)n3)C(C)(C)C2)c1 [Example 20] | 53
CC1CN(C(=O)c2ccc(Cl)s2)CCN1C(=O)c1ncn(-c2cccc(Cl)c2)n1 (centres unmarked) [Example 273] | 1320
CC1(C)CN(C(=O)c2cccc(C3CCCC3)c2)CCN1C(=O)c1ncn(-c2ccccc2)n1 [Example 144] | 23
COc1cccc(C(=O)N2CCN(C(=O)c3ncn(-c4cccc(F)c4)n3)C3(CC3)C2)n1 [Example 304, {4-[1-(3-Fluoro-phenyl)-1H-[1,2,4]-triazole-3-carbonyl]-4,7-diaza-spiro[2.5]oct-7-yl}-(6-methoxy-pyridin-2-yl)-methanone] | 845
CC1(C)CN(C(=O)c2nccc(C(F)(F)F)n2)CCN1C(=O)c1ncn(-c2cccc(Cl)c2)n1 [Example 84] | 107
CC1(C)CN(C(=O)c2cccc(-c3cnco3)c2)CCN1C(=O)c1ncn(-c2cccc(Cl)c2)n1 [Example 28] | 99
CC1(C)CN(C(=O)c2ccnc(C(F)(F)F)c2)CCN1C(=O)c1ncn(-c2cccc(Cl)c2)n1 [Example 88] | 375
CC1(C)CN(C(=O)c2cc(Cl)c3c(c2)OCCO3)CCN1C(=O)c1nnn(-c2ccccc2)n1 [Example 164, [4-(8-Chloro-2,3-dihydro-benzol-[1,4]dioxine-6-carbonyl)-2,2-dimethyl-piperazin-1-yl]-(2-phenyl-2H-tetrazol-5-yl)-methanone] | 19
CC1(C)CN(C(=O)c2cc3ccccc3cn2)CCN1C(=O)c1ncn(-c2cccc(Cl)c2)n1 [Example 35] | 350

SMILES | EC50 [nM]
CCC1CN(C(=O)c2ncn(-c3cccc(F)c3)n2)CCN1C(=O)c1cccc(OC)n1 (centres unmarked) [Example 259] | 231
CC1(C)CN(C(=O)c2cccc(C(F)(F)F)c2)CCN1C(=O)c1nnn(-c2ccccc2)n1 [Example 166] | 15
CC(C)COc1cccc(C(=O)N2CCN(C(=O)c3ncn(-c4cccc(Cl)c4)n3)CC2C)c1 (centres unmarked) [Example 216] | 612
CC1(C)CN(C(=O)c2cccc(C3CC3)n2)CCN1C(=O)c1ncn(-c2ccccc2)n1 [Example 183] | 49
CC1CN(C(=O)c2cc(Cl)c3c(c2)OCCO3)CCN1C(=O)c1ncn(-c2cccc(Cl)c2)n1 (centres unmarked) [Example 283] | 233
Cc1cccc(-n2cnc(C(=O)N3CCN(C(=O)c4cc(Cl)c5c(c4)OCCO5)CC3(C)C)n2)c1 [Example 9] | 53
CCn1cc(-c2cccc(C(=O)N3CCN(C(=O)c4ncn(-c5cccc(Cl)c5)n4)C(C)(C)C3)n2)cn1 [Example 92] | 119
CC1(C)CN(C(=O)c2nccc(C(F)(F)F)n2)CCN1C(=O)c1ncn(-c2ccccc2)n1 [Example 147] | 613
CC1CN(C(=O)c2ncn(-c3cccc(Cl)c3)n2)CCN1C(=O)c1cn(C)c2ccccc12 (centres unmarked) [Example 230] | 570
COCc1cccc(C(=O)N2CCN(C(=O)c3ncn(-c4cccc(Cl)c4)n3)C(C)(C)C2)n1 [Example 38] | 410
CC1(C)CN(C(=O)c2cccc(Cl)c2)CCN1C(=O)c1nnn(-c2ccccc2F)n1 [Example 196] | 156
COc1ccc(C(=O)N2CCN(C(=O)c3ncn(-c4ccccc4)n3)C(C)(C)C2)o1 [Example 132] | 1810
Cc1noc(C)c1-c1cccc(C(=O)N2CCN(C(=O)c3ncn(-c4cccc(Cl)c4)n3)C(C)(C)C2)n1 [Example 90, [1-(3-Chloro-phenyl)-1H-[1,2,4]triazol-3-yl]-{4-[6-(3,5-dimethyl-isoxazol-4-yl)-pyridine-2-carbonyl]-2,2-dimethyl-piperazin-1-yl]-methanone] | 38
CC1(C)CN(C(=O)c2csc(C(F)(F)F)n2)CCN1C(=O)c1ncn(-c2ccccc2)n1 [Example 152] | 291
CCc1ccc(C(=O)N2CCN(C(=O)c3ncn(-c4cccc(Cl)c4)n3)C(C)(C)C2)cc1 [Example 81] | 155
CC1CN(C(=O)c2ncn(-c3cccc(Cl)c3)n2)CCN1C(=O)c1cc2ccccc2o1 (centres unmarked) [Example 214] | 428
CC(C)c1cccc(C(=O)N2CCN(C(=O)c3ncn(-c4ccccc4)n3)C(C)(C)C2)c1 [Example 96, [4-(3-Isopropyl-benzoyl)-2,2-dimethyl-piperazin-1-yl]-(1-phenyl-1H-[1,2,4]triazol-3-yl)-methanone] | 25
COc1cc(C(=O)N2CCN(C(=O)c3ncn(-c4cccc(C)c4)n3)CC2C)ccc1C (centres unmarked) [Example 235] | 314
CC(C)Oc1nc(C(=O)N2CCN(C(=O)c3ncn(-c4ccccc4)n3)C(C)(C)C2)cc2ccccc12 [Example 118] | 50
COc1nc(C(=O)N2CCN(C(=O)c3nnn(-c4cccc(Cl)c4)n3)C(C)(C)C2)cc2ccccc12 [Example 208] | 125

— US8883789B2, “Piperazine derivatives and their use as positive allosteric modulators of mGluR5 receptors” (Boehringer Ingelheim International GmbH, priority 2011, dated 2014)
